The values that follow come from patent US6605602B1, “Method of treating BK virus nephropathy” (University of Pittsburgh-of the Commonwealth System of …, priority 2001, dated 2003).

The conditions of series [1]: contraindicated in patients with impaired renal function; cited from earlier work.
The subject of series [2] is polyoma viral DNA replication. Conditions: in vitro studies; cited from earlier work.
For series [3] the following is noted: within 24 hours of administration; usual dosage 5 mg/kg; cited from earlier work.
Series [4] in a line: Serum creatinine of cidofovir-treated BKVN renal transplant patients. Format: in vivo, human. More on the design: Current Creatinine: unit: mg/dl. The protocol:
Four patients were treated with cidofovir at a dosage level of […], 2-3 times weekly. This is […] of the recommended dose of 5 mg/kg. In addition, cidofovir was administered without probenecid.
Subsequently, the serum creatinine progressively rose to 8 mg/dl. At this point, a combination of IV IgG, high dose steroids and a single dose of cidofovir (1 mg/kg IV without probenecid) was administered.

A further series relates to BK virus (BKV). The series can be described thus: Cidofovir treatment of renal transplant recipients with BKV nephropathy; BKV viral load by TaqMan QPCR. The series is classed as in vivo, human. On the procedure: Nucleic acid was extracted from urine and plasma specimens (150 μl of urine or plasma per specimen) using the Qui Amp Viral RNA Minikit, commercially available from Qiagen, Inc. The extraction procedure was performed according to the manufacturer's instructions provided with the kit.
A BKV gene sequence from the VP-1 region was amplified by the real-time TaqMan QPCR assay using the following primers and probe. The forward BKVN primer had the sequence 5′-[…]-3′ (SEQ ID NO. 1) and a Tm of 59° C. The reverse BKVN primer had the sequence 5′-[…]-3′ (SEQ ID NO. 2) and a Tm of 59° C. The TaqMan probe had the sequence 5′-[…]-3′ (SEQ ID NO. 4) and a Tm of 68° C. The TaqMan probe was labeled at the 5′ end with a FAM dye and at the 3′ end with a TAMRA dye. […]
In order to generate a positive control, a BKV gene sequence from the VP-1 region encompassing the TaqMan primer amplicon was cloned in a vector using the pGEM-T PCR cloning system (Promega, Madison, Wis.). The above sequence was then quantitated using UV spectrophotometry in order to calculate the copy number for a master standard positive control. A 10× serial dilution of standard positive control, with copies ranging from 10^7 to 10^10 was made and used to generate a standard curve with each quantitative assay. […] The urinary viral load was expressed as BKV copies/μl of urine. The plasma viral load was expressed as BKV copies/μl. […]
(In general: Quantitative PCR measures a nucleic acid by following its amplification.)

The next series relates to JC virus. Conditions: patients, infection caused by JC virus; cited from earlier work.

In the case of `Nc1ccn(C[C@@H](CO)OCP(=O)(O)O)c(=O)n1` [cidofovir, (S)-1-(3-hydroxy-2-phosphonylmethoxypropyl) cytosine], in series [1], the nephrotoxicity result is reported as “nephrotoxic”. Besides, in series [2], the “inhibition of polyoma viral DNA replication” value is given as “inhibit polyoma viral DNA replication”. Further, the “dose excreted in the urine unchanged” value in series [3] is 75-80%. Also, the “Current Creatinine” value in series [4] (Patient 1, Post Urethral valve, 3 doses (20-20-40 mg)) was found to be 1.8; in series [4] (Patient 2, Diabetic Nephropathy, 3 doses (70-35-15 mg)), 3.2; in series [4] (Patient 3, Renal Dysplasia, 1 dose (20 mg)), 1.7; in series [4] (Patient 4, IgA Nephropathy, 4 doses (200-200-200-70 mg)) it was 3. Also, the “serum creatinine after treatment” value in series [4] (case report Patient #1, after resuming full immunosuppression, had risen to 8 mg/dl before treatment) lay in the range of 1.7 to 1.9 mg/dL. Moreover, the “BKV in urine and blood samples by QPCR” value in the series on BK virus (BKV) (case report Patient #1, two months after single dose 1 mg/kg IV without probenecid, combined with IV IgG and high dose steroids) was “Neither sample was amplifiable for BKV”. Moreover, the “clearance of BKV viruria, number of doses needed” value in the series with BK virus (BKV) (four BKVN patients, 0.25 to 1.0 mg/kg, 2-3 times weekly, without probenecid) is listed as 2-4 doses. The “effect in progressive multifocal leukoencephalopathy” value in the series with JC virus was “reportedly effective”.

For the compound `Nc1ccn([C@@H]2O[C@H](CO)[C@@H](O)[C@@H]2O)c(=O)n1` [cytosine arabinoside], the “inhibition of polyoma viral DNA replication” value in series [2] is listed as “inhibit polyoma viral DNA replication”.
